The source of these data is patent publication US10022358B2, “Methods for improving muscle and heart function” (BioVentures, LLC, priority 2013, dated 2018).

The test system of one experiment is muscle protein synthesis. To be noted: cited from earlier work.
Experiment [1] concerns patients with heart failure. To be noted: dietary supplementation; cited from earlier work.
The test system of experiment [2] is nitric oxide (NO) synthesis. Description: Isotopic tracer study of plasma arginine and NO synthesis during citrulline ingestion (FIG. 5). Type of experiment: in vivo, human. The procedure:
FIG. 5 depicts plasma arginine responses (A) and nitric oxide (NO) synthesis rates (B) in basal period and during ingestion of 3 g of citrulline (CIT) sip ingestion over 3 hours in elderly (n=8, 77±9y, 93±4 kg) and young individuals (n=8, 27±9y, 70±5 kg).
Briefly, elderly (n=8, 77±9y, 93±4 kg) and young individuals (n=8, 27±9y, 70±5 kg) ingested 3 grams of citrulline over 3 hours and plasma arginine response and nitric oxide (NO) synthesis rates were quantified. […] Thus, oral ingestion of citrulline is very effective in increasing peripheral arginine concentration and NO synthesis in elderly subjects with heart failure.

The subject of a further experiment is mitochondrial biogenesis. To be noted: cited from earlier work.
For experiment [3], the system named is carnitinepalmitoyltransferase (CPT)-1. Put plainly: CPT-1 activity in heart mitochondria of old animals treated with oral propionyl-L-carnitine (FIG. 8). Type of experiment: in vivo, rodent. Particulars: old hearts, oral treatment, p<0.02, n=6. The text has this:
FIG. 8 depicts graphs showing carnitinepalmitoyltransferase (CPT)-1activity decreases with age in mitochondria (2 vs 18 mos, p<0.004).
Appropriate regulation of energy substrate metabolism not only involves relatively normal insulin sensitivity, but also adequate number and functional capacity of mitochondria. One aspect of mitochondrial function is the rate of production of mitochondrial proteins. […] In addition to adequate protein content in mitochondria, it is necessary that substrates, particularly long-chain fatty acids, are not limited in their ability to enter the mitochondria, or in their complete oxidation once inside the mitochondria. The capacity to oxidize fatty acids is reduced in patients with major inflammatory responses due to reduced carnitine palmitoyltransferase 1 (CPT1) activity. Unimpaired capacity to oxidize fatty acids is important because the energy to perform low-intensity exercise, including activities of daily living that individuals with heart failure often struggle with, is provided by the oxidation of fatty acids.

The mark [4] stands for this setting: 3 g citrulline sip ingestion over 3 hours, elderly and young.

“Also recorded” adds a separate entry of the source.

In the case of `N=C(N)NCCC[C@H](N)C(=O)O` [arginine], in the experiment on muscle protein synthesis, the “effect on muscle protein synthesis when NO synthesis pharmacologically blocked” value was “effective even when given when NO synthesis was pharmacologically blocked”. Moreover, in experiment [1], the blood pressure entry is reported as “reduces blood pressure”, the “duration until exhaustion on a treadmill walk” value is “increased duration until exhaustion” and the right ventricular function entry was “improves right ventricular function”.
As to `NC(=O)NCCC[C@H](N)C(=O)O` [citrulline], in experiment [2] (setting [4]), the “nitric oxide (NO) synthesis rate” value was “stimulated production of NO” and the plasma arginine response entry was “effectively increased the concentration of arginine in the blood”. The “increase in NO synthesis in elderly” value in experiment [2] (elderly with heart failure, 3 g citrulline over 3 hours) was “physiologically significant”.
As to `CC(C)C[C@H](N)C(=O)O` [leucine], the mitochondrial biogenesis result in the experiment with mitochondrial biogenesis was “stimulate mitochondrial biogenesis”.
Regarding `CCC(=O)O[C@H](CC(=O)[O-])C[N+](C)(C)C` [propionyl-L-carnitine], the “CPT-1 activity in mitochondria” value in experiment [3] is given as “can restore CPT-1 activity to that of young hearts; also recorded: restored CPT to that of young hearts”.
